Measurements reported in patent US20160137639A1, “TRIAZOLE-ISOXAZOLE COMPOUND AND MEDICAL USE THEREOF” (JAPAN TOBACCO INC., priority 2012, published 2016).
pEC50: −log10 of the molar value. Like-named read-outs stand apart in the source and are kept apart here.

Legend:
human RORγ = target: T1, human RORγ (Homo sapiens, UniProt P51449); experiment: Luciferase reporter gene assay of inhibitory effect against RORγ transcriptional activity (GAL4-hRORγ plasmid in CHO cells); type: cell-based; settings: for EC50: read-out: LUC EC50 (μM) hRORg; for pEC50: read-out: LUC EC50 hRORg
T1 construct: human, NM_005060.3 and from Ser253 to Lys518; expressed in transfected cells; host or cells: CHO cells (transient co-transfection with pG5-Luc reporter)
T1 sequence (P51449 253-518): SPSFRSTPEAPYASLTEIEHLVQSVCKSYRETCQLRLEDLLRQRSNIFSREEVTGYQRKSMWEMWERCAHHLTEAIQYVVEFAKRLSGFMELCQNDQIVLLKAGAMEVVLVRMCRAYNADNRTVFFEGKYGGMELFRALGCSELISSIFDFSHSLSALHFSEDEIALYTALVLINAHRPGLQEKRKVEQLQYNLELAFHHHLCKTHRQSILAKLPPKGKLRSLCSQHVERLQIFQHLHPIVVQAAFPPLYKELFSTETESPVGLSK

mouse RORγ = target: T2, mouse RORγ (Mus musculus, UniProt P51450); experiment: Luciferase reporter gene assay of inhibitory effect against RORγ transcriptional activity (GAL4-mRORγ plasmid in CHO cells); type: cell-based; settings: for EC50: read-out: LUC EC50 (μM) mRORg; for pEC50: read-out: LUC EC50 mRORg
T2 construct: mouse, NM_011281.2 and from Ile251 to Lys516; expressed in transfected cells; host or cells: CHO cells (transient co-transfection with pG5-Luc reporter)
T2 sequence (P51450 251-516): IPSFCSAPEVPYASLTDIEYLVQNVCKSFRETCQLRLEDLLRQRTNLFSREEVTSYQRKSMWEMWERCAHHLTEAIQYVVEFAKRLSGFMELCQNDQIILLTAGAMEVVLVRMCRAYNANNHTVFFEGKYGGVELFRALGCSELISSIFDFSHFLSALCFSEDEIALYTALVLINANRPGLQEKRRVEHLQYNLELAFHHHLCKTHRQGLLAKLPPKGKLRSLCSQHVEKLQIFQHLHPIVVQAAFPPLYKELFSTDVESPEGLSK
Outline: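 Readout is intracellular luciferase after 2-day compound exposure (8 concentrations, 0.1% DMSO) in CHO cells expressing GAL4 fused to mouse RORγ LBD residues Ile251–Lys516 plus pG5-Luc reporter. EC50 fitted from %-of-control; points showing resazurin-detected cytotoxicity dropped.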

SMILES	EC50 (human RORγ) [µM]	EC50 (mouse RORγ) [µM]	pEC50 (human RORγ)	pEC50 (mouse RORγ)
Cc1ccc(NC(=O)C[C@H](CCC(=O)O)c2noc(-c3cc(CC(C)(C)C)on3)c2C2CC2)c(F)c1 [Example E-65]	< 3	< 3	–	–
Cc1c(Cl)cccc1NC(=O)CC(CCCO)c1nnc(CCCC(C)C)n1C1CC1 (racemic) [Example F-212]	< 3	< 3	–	–
Cc1ccc(NC(=O)[C@H]2CC(F)(F)C[C@@H]2c2nnc(-c3cc(CC(C)C)on3)n2C2CC2)c(C)c1 (racemic) [Example F-570]	–	–	> 5.52	< 5.52
Cc1c(Cl)cccc1NC(=O)CCc1nnc(CCCC(C)(C)C(=O)N(C)C)n1C1CC1 [Example F-238]	> 3	> 3	–	–
Cc1c(O)cccc1CNC(=O)CCc1nnc(CCC(C)C)n1C1CC1 [Example F-133]	> 3	> 3	–	–
Cc1ccc(NC(=O)CCc2nnn(CCC3CCCCC3)c2C2CC2)c(C)c1 [Example F-443]	< 3	< 3	–	–
Cc1c(NC(=O)C[C@H](OCC(F)(F)F)c2nnc(-c3cc(CC(C)C)on3)n2C2CC2)ccc(F)c1F [Example F-633]	–	–	> 5.52	> 5.52
Cc1ccc(NC(=O)C[C@H](CCC(=O)O)c2noc3c2C(C)CCC3CCC(C)C)c(Cl)c1 (mixture of isomers) [Example F-691]	–	–	> 5.52	> 5.52
CC(=O)N1C[C@@H](C(=O)Nc2ccc(C)cc2C)[C@H](c2nnc(-c3cc(CC(C)C)on3)n2C2CC2)C1 [Example F-409]	> 3	> 3	–	–
Cc1c(Cl)cccc1NC(=O)CC(CCCOCc1ccccc1)c1nnc(CCC(C)C)n1C1CC1 (racemic) [Example F-195]	< 3	< 3	–	–
Cc1ccc(NC(=O)[C@H]2C[C@H](O)C[C@@H]2c2nnc([C@H]3C[C@@H](CC(C)C)C3)n2C2CC2)c(C)c1 (racemic) [Example F-421]	< 3	< 3	–	–
Cc1ccc(NC(=O)C[C@H](CCC(=O)O)c2noc(-c3cc(CC(C)C)on3)c2C(F)(F)F)c(F)c1 [Example E-12]	> 3	< 3	–	–
Cc1c(NC(=O)CCc2nnc(CCC(C)C)n2C2CC2)cccc1C1CC1 [Example F-156]	> 3	< 3	–	–
Cc1ccc(NC(=O)CCc2nnc([C@H]3C[C@H](CC(C)(C)C)C3)n2C2CC2)c(C)c1 [Example F-425]	< 3	< 3	–	–
Cc1c(Cl)cccc1NC(=O)CC(CC(=O)O)c1nnc(CCCC(C)C)n1C1CC1 (racemic) [Example F-213]	> 3	> 3	–	–
Cc1ccc(NC(=O)[C@H]2CCC(=O)N(C)[C@@H]2c2nnc(CCCC(C)(C)C)n2C2CC2)c(C)c1 [Example F-322]	< 3	< 3	–	–
Cc1ccc(NC(=O)C[C@@H](CCO)c2noc([C@H]3C[C@@H](CC(C)C)C3)c2C2CC2)c(C)c1 [Example F-579]	–	–	> 5.52	> 5.52
Cc1ccc(NC(=O)[C@H]2CN(C(=O)CCC(=O)O)C[C@@H]2c2noc([C@H]3C[C@@H](CC(C)(C)C)C3)c2C2CC2)c(Cl)c1 [Example F-688, 4-((3R,4R)-3-(2-Chloro-4-methyl-phenylcarbamoyl)-4-{4-cyclopropyl-5-[3-(2,2-dimethyl-propyl)-cyclobutyl]-isoxazol-3-yl}pyrrolidin-1-yl)-4-oxo-butanoic acid]	–	–	> 5.52	> 5.52
COc1cc(C)ccc1CNC(=O)CC(CCO)c1nnc(CCC2CCCCC2)n1C1CC1 (racemic) [Example F-249]	< 3	< 3	–	–
COc1cc(C)ccc1CNC(=O)C[C@H](CCO)c1nnc([C@H]2C[C@@H](CC(C)C)C2)n1C1CC1 [Example F-535]	–	–	> 5.52	> 5.52
CC(C)C[C@H]1C[C@@H](c2nnc([C@@H](CCO)CC(=O)Nc3cccc4c3CCC4)n2C2CC2)C1 [Example F-543]	–	–	> 5.52	> 5.52
COc1cc(F)ccc1CNC(=O)CCc1nnc(CCC(C)C)n1C1CC1 [Example F-229]	> 3	> 3	–	–
